{"source": "patent US4198424A", "about": "“Substituted 1-phenyl-2-pyrrolidin-2-yl-ethanols, their synthesis, their use and their compositions” (Byk Gulden Lomberg Chemische Fabrik GmbH, priority 1977, dated 1980)", "key": {"albino mice [1]": {"test_system": "albino mice", "test": "Tail-Flick test (analgesia, mouse)", "format": "in vivo", "settings": "po, per os, dose prolonging reaction time by 50%", "procedure": "(§1) (b) Tail-Flick test: a thermal pain is caused at the tail root of female albino mice or rats with a focused heat ray, and the time until the tail is drawn away is recorded with a stop watch. Normally, it lies in the range of from 4 to 5 seconds. The substances tested cause delayed reaction to the heat pain, i.e. reduced thermal-pain reaction. The dose which prolongs the reaction time by 50% was determined. Literature: D'Amour, F. E., and Smith, D. L., J. Pharmacol. Exp. Ther., 72 (1941) 74."}, "albino mice [2]": {"test_system": "albino mice", "test": "Writhing test (acetic acid writhing, analgesia, mouse)", "format": "in vivo", "settings": "po, per os; for ED50: dose reducing number of writhings by 50%; for ED40: *ED40 values, read-out: ED40 Writhing (values marked *)", "procedure": "(c) Writhing test (acetic acid writhing): intraperitoneal injection of 0.2 ml/20 g mouse of a 0.75% strength acetic acid solution induces (in albino mice) a typical syndrome, called writhing, which proceeds over the body with dorsal flection. These writhings, which occur in the course of the first half hour after administration, are counted in the space of time of from 5 to 20 minutes after administration. The substances tested cause a reduction of the number of writhing syndromes. […] Literature: Koster, Anderson, Fed. Proc., 18 (1959) 42."}, "[3]": {"test": "Determination of the lethal effect (LD50, oral, mouse)", "settings": "in vivo, per os, 48 hours observation", "procedure": "The toxicity investigations were carried out on female NMRI mice: body weight 22 to 26 g. The animals received food and water (Altromin®) ad libitum. The substances to be tested were administered orally with the oesophageal sound as solutions of various concentration in a volume of from 10 to 20 ml/kg; 5 animals per dose were kept in Makrolon® cages, Type II. The observation duration was 48 hours. The DL50, the dose with which 50% of the animals died, was determined graphically from the dose effect curve."}, "albino mice [4]": {"test_system": "albino mice", "test": "Hot plate test (analgesia, mouse)", "format": "in vivo", "settings": "po, per os; for ED50: dose prolonging reaction time by 50%; for ED40: *ED40 values, read-out: ED40 Hot plate (values marked *)", "procedure": "(a) Hot plate test: female albino mice were placed on a 50° C. hot plate and the reaction time until they licked their paws was recorded with a stop watch. Normal values lie in the range of from 7 to 8 seconds. The substances tested cause delayed reaction to the heat stimulus, i.e. reduced thermal-pain sensitivity. The dose which prolongs the reaction time by 50% was determined. Literature: Eddy, N. B., and Leimbach, D., J. Pharmacol. Exp. Ther., 107 (1953) 385."}, "rats": {"test_system": "rats", "test": "Tail-Flick test (analgesia, rat)", "format": "in vivo", "settings": "po, per os, dose prolonging reaction time by 50%", "procedure": "as §1"}, "[5]": {"settings": "Saelens et al., Arch. Int. Pharmacodyn. Ther., 190 (1971) 213; cited from earlier work"}, "mice": {"test_system": "mice", "test": "Withdrawal jumping of mice after treatment and intraperitoneal application of naloxone", "format": "in vivo, mouse", "settings": "for % of the animals reacting with \"jumping\": naloxone intraperitoneal, 3 and 6 given 200 mg/kg twice daily over 5 weekdays, NaCl control 20; for withdrawal jumping after naloxone (in words): 200 mg/kg twice daily over 5 weekdays, naloxone 30 mg/kg i.p. 1 hour after last dose", "procedure": "(§2) According to Way et al. [J. Pharmacol. Exp. Ther., 167 (1969) 1] mice, which are dependent on analgesics with a morphine-like effect, react with withdrawal jumping immediately after intraperitoneal administration of naloxone. According to Saelens and co-workers [Arch. Int. Pharmacodyn. […] 2 cannot be tested accordingly because of its toxicity.\n(§3) 3 and 6 were administered to mice [200 mg/kg twice daily over 5 weekdays]."}, "[6]": {"test": "Withdrawal jumping of mice after treatment and intraperitoneal application of naloxone", "format": "in vivo, mouse", "settings": "mouse, in vivo, not testable for jumping, read-out: lethality in withdrawal jumping test", "procedure": "as §2, §3"}, "albino mice [7]": {"test_system": "albino mice", "test": "Tail-Flick test (analgesia, mouse)", "format": "in vivo", "settings": "po, per os, *ED40 values, read-out: ED40 Tail-Flick (values marked *)"}}, "data": [{"smiles": "COc1cccc([C@H](O)C[C@@H]2CCCN2C)c1", "note": "(relative stereo) [Compound 4, (R*,S*)-1-(3-methoxyphenyl)-2-(1-methyl-2-pyrrolidinyl)-ethanol]", "values": [{"measurement": "ED50", "setting": "albino mice [1]", "result": 60, "unit": "mg/kg"}, {"measurement": "ED50", "setting": "albino mice [2]", "result": 50, "unit": "mg/kg"}, {"measurement": "LD50 at 48 h", "setting": "[3]", "result": 420, "unit": "mg/kg"}, {"measurement": "ED50", "setting": "albino mice [4]", "result": 100, "unit": "mg/kg"}]}, {"smiles": "COc1cccc([C@H](O)C[C@H]2CCCN2C)c1", "note": "(relative stereo) [Compound 5, (R*,R*)-1-(3-methoxyphenyl)-2-(1-methyl-2-pyrrolidinyl)ethanol]", "values": [{"measurement": "ED50", "setting": "albino mice [1]", "result": 70, "unit": "mg/kg"}, {"measurement": "ED50", "setting": "albino mice [2]", "result": 40, "unit": "mg/kg"}, {"measurement": "LD50 at 48 h", "setting": "[3]", "result": 490, "unit": "mg/kg"}, {"measurement": "ED50", "setting": "albino mice [4]", "result": 50, "unit": "mg/kg"}]}, {"smiles": "Cc1cccc([C@H](O)C[C@@H]2CCCN2C)c1", "note": "(relative stereo) [Compound 7, (R*,S*)-1-(3-methylphenyl)-2-(1-methyl-2-pyrrolidinyl)-ethanol]", "values": [{"measurement": "ED50", "setting": "albino mice [1]", "result": 50, "unit": "mg/kg"}, {"measurement": "ED40", "setting": "albino mice [2]", "result": 75, "unit": "mg/kg"}, {"measurement": "LD50 at 48 h", "setting": "[3]", "result": 300, "unit": "mg/kg"}, {"measurement": "ED50", "setting": "albino mice [4]", "result": 100, "unit": "mg/kg"}]}, {"smiles": "Cc1cccc([C@H](O)C[C@H]2CCCN2C)c1", "note": "(relative stereo) [Compound 8, (R*,R*)-1-(3-methylphenyl)-2-(1-methyl-2-pyrrolidinyl)-ethanol]", "values": [{"measurement": "ED50", "setting": "albino mice [1]", "result": 10, "unit": "mg/kg"}, {"measurement": "ED40", "setting": "albino mice [2]", "result": 75, "unit": "mg/kg"}, {"measurement": "LD50 at 48 h", "setting": "[3]", "result": 320, "unit": "mg/kg"}, {"measurement": "ED40", "setting": "albino mice [4]", "result": 100, "unit": "mg/kg"}]}, {"smiles": "COc1cccc([C@@H](C[C@@H]2CCCN2C)OC(C)=O)c1", "note": "(relative stereo) [Compound 13, (R*,S*)-acetic acid-[1-(3-methoxyphenyl)-2-(1-methyl-2-pyrrolidinyl)-ethyl]-ester]", "values": [{"measurement": "ED40", "setting": "albino mice [2]", "result": 75, "unit": "mg/kg"}, {"measurement": "LD50 at 48 h", "setting": "[3]", "result": 440, "unit": "mg/kg"}]}, {"smiles": "CCC(=O)O[C@](Cc1ccccc1)(c1ccccc1)[C@H](C)CN(C)C", "note": "[Compound 1, dextropropoxyphene, reference compound]", "values": [{"measurement": "ED50", "setting": "rats", "result": 25, "unit": "mg/kg"}, {"measurement": "ED50", "setting": "albino mice [1]", "result": 25, "unit": "mg/kg"}, {"measurement": "ED50", "setting": "albino mice [2]", "result": 30, "unit": "mg/kg"}, {"measurement": "dependence development", "setting": "[5]", "result": "a dependence development is evidenced"}, {"measurement": "% of the animals reacting with \"jumping\"", "setting": "mice", "result": 100, "unit": "%"}, {"measurement": "LD50 at 48 h", "setting": "[3]", "result": 140, "unit": "mg/kg"}, {"measurement": "ED50", "setting": "albino mice [4]", "result": 15, "unit": "mg/kg"}]}, {"smiles": "CN1CCOC(c2ccccc2)c2ccccc2C1", "note": "(stereo not drawn) [Compound 2, nefopam, reference compound]", "values": [{"measurement": "ED50", "setting": "rats", "result": 10, "unit": "mg/kg"}, {"measurement": "ED50", "setting": "albino mice [1]", "result": 20, "unit": "mg/kg"}, {"measurement": "ED50", "setting": "albino mice [2]", "result": 25, "unit": "mg/kg"}, {"measurement": "mortality", "setting": "[6]", "result": 80, "unit": "%"}, {"measurement": "LD50 at 48 h", "setting": "[3]", "result": 180, "unit": "mg/kg"}, {"measurement": "ED50", "setting": "albino mice [4]", "result": 30, "unit": "mg/kg"}]}, {"smiles": "COc1cccc(C(O)CC2CCCN2C)c1", "note": "(stereo not drawn) [Compound 3, 1-(3-methoxyphenyl)-2-(1-methylpyrrolidin-2-yl)-ethanol]", "values": [{"measurement": "ED50", "setting": "rats", "result": 7, "unit": "mg/kg"}, {"measurement": "ED50", "setting": "albino mice [1]", "result": 25, "unit": "mg/kg"}, {"measurement": "ED50", "setting": "albino mice [2]", "result": 15, "unit": "mg/kg"}, {"measurement": "withdrawal jumping after naloxone (in words)", "setting": "mice", "result": "did not lead to withdrawal jumping"}, {"measurement": "% of the animals reacting with \"jumping\"", "setting": "mice", "result": 20, "unit": "%"}, {"measurement": "LD50 at 48 h", "setting": "[3]", "result": 600, "unit": "mg/kg"}, {"measurement": "ED50", "setting": "albino mice [4]", "result": 30, "unit": "mg/kg"}]}, {"smiles": "Cc1cccc(C(O)CC2CCCN2C)c1", "note": "(stereo not drawn) [Compound 6, 2-(1-methylpyrrolidin-2-yl)-1-(3-tolyl)ethanol]", "values": [{"measurement": "ED50", "setting": "rats", "result": 10, "unit": "mg/kg"}, {"measurement": "ED50", "setting": "albino mice [1]", "result": 35, "unit": "mg/kg"}, {"measurement": "ED50", "setting": "albino mice [2]", "result": 75, "unit": "mg/kg"}, {"measurement": "withdrawal jumping after naloxone (in words)", "setting": "mice", "result": "did not lead to withdrawal jumping"}, {"measurement": "% of the animals reacting with \"jumping\"", "setting": "mice", "result": 10, "unit": "%"}, {"measurement": "LD50 at 48 h", "setting": "[3]", "result": 420, "unit": "mg/kg"}, {"measurement": "ED50", "setting": "albino mice [4]", "result": 100, "unit": "mg/kg"}]}, {"smiles": "COc1cccc(C(O)CC2CCCN2C(C)C)c1", "note": "(stereo not drawn) [Compound 9, 2-(1-isopropyl-2-pyrrolidinyl)-1-(3-methoxyphenyl)ethanol]", "values": [{"measurement": "ED50", "setting": "albino mice [2]", "result": 75, "unit": "mg/kg"}, {"measurement": "ED40", "setting": "albino mice [7]", "result": 75, "unit": "mg/kg"}, {"measurement": "LD50 at 48 h", "setting": "[3]", "result": 340, "unit": "mg/kg"}, {"measurement": "ED40", "setting": "albino mice [4]", "result": 100, "unit": "mg/kg"}]}, {"smiles": "CN1CCCC1CC(O)c1cccc(O)c1", "note": "(stereo not drawn) [Compound 10, 1-(3-hydroxyphenyl)-2-(1-methyl-2-pyrrolidinyl)-ethanol]", "values": [{"measurement": "ED50", "setting": "albino mice [2]", "result": 125, "unit": "mg/kg"}, {"measurement": "LD50 at 48 h", "setting": "[3]", "result": 420, "unit": "mg/kg"}]}, {"smiles": "CN1CCCC1CC(O)c1cccc(Cl)c1", "note": "(stereo not drawn) [Compound 11, 1-(3-chlorophenyl)-2-(1-methyl-2-pyrrolidinyl)-ethanol]", "values": [{"measurement": "ED50", "setting": "albino mice [1]", "result": 65, "unit": "mg/kg"}, {"measurement": "ED50", "setting": "albino mice [2]", "result": 125, "unit": "mg/kg"}, {"measurement": "LD50 at 48 h", "setting": "[3]", "result": 330, "unit": "mg/kg"}]}, {"smiles": "CCCCCCN1CCCC1CC(O)c1cccc(OC)c1", "note": "(stereo not drawn) [Compound 12, 2-(1-n-hexyl-2-pyrrolidinyl)-1-(3-methoxyphenyl)-ethanol]", "values": [{"measurement": "ED50", "setting": "albino mice [1]", "result": 70, "unit": "mg/kg"}, {"measurement": "ED40", "setting": "albino mice [2]", "result": 75, "unit": "mg/kg"}, {"measurement": "LD50 at 48 h", "setting": "[3]", "result": 180, "unit": "mg/kg"}]}]}
